The text below walks through data of publication PMC6958661, “Regulatory Role of PlaR (YiaJ) for Plant Utilization in Escherichia coli K-12” (Scientific Reports, 2019).

Structures are written as SMILES.

The assay has as its target T1, PlaR (YiaJ) (Escherichia coli, UniProt P37671).
T1 sequence (P37671 1-282): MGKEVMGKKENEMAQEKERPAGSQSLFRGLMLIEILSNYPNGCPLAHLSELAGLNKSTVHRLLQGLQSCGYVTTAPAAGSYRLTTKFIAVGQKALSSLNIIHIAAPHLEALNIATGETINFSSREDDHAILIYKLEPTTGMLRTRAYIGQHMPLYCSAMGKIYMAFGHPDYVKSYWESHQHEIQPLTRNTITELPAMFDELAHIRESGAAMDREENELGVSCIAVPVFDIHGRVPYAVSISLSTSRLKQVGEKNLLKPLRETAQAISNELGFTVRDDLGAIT
Put plainly: gel shift assay, dissociation of PlaR from yiaK promoter DNA. Format: binding. The following applies: 2.5 uM PlaR, yiaK promoter probe, 1-25 mM compound, 37 °C, pH 7.8, 150 mM NaCl, 3 mM Mg acetate; effector (inducer). (A gel shift assay detects complexes by their altered migration in electrophoresis.)

In the case of `O=C1O[C@H]([C@@H](O)CO)C(O)=C1O` [L-ascorbate], the “gel shift assay, dissociation of PlaR from yiaK promoter DNA” value is “Both the metabolites induced a dose-dependent dissociation in vitro of PlaR from the PlaR-yiaK promoter”.
Consider `O=C(O)[C@H]1O[C@H](O)[C@H](O)[C@@H](O)[C@H]1O` [α-D-galacturonate], for which the “gel shift assay, dissociation of PlaR from yiaK promoter DNA” value is “Both the metabolites induced a dose-dependent dissociation in vitro of PlaR from the PlaR-yiaK promoter”.
